Assay results published in US20200000816A1, “COMPOUND HAVING SOMATOSTATIN RECEPTOR AGONISTIC ACTIVITY AND PHARMACEUTICAL USE THEREOF” (ONO PHARMACEUTICAL CO., LTD., priority 2017, published 2020).

Legend:
[1] = tested on: Chinese hamster lung-derived CHL/IU cells; assay: Evaluation of phospholipidosis induction ability using cultured cell line (NBD-PE incorporation); assay type: cell-based; settings: 24 hours, positive = 25% or more of amiodarone maximum reaction at cell viability 50% or more; for phospholipidosis induction ability (judgement): 6.25-100 μmol/L
Method: Chinese hamster lung-derived CHL/IU cells were suspended in an MEM-E culture solution containing non-essential amino acids, sodium pyruvate and 10% foetal bovine serum and seeded in a 96-well plate. The cells cultured overnight in an incubator (5% carbon dioxide, 95% air, 37° C.) were further cultured for 24 hours after replacing the culture solution with a culture solution containing 6.25, 12.5, 25, 50 or 100 μmol/L of a test substance and NBD-PE (fluorescence label N-(7-nitrobenz-2-oxa-1,3-diazol-4-yl)-1,2-dihexadecanoyl-sn-glycero-3-phosphoethanolamine triethylammonium salt) obtained from Molecular Probes. The phospholipidosis induction ability was evaluated by measuring the concentration of NBD-PE incorporated into the cells. Specifically, the cells were washed twice with PBS and then measured for the fluorescence of NBD-PE (excitation wavelength: 485 nm, fluorescence wavelength: 535 nm) incorporated in the cells on a SpectraMax plate reader available from Molecular Devices, LLC. for evaluation. After measurement of the fluorescence of NBD-PE, the cell viability was evaluated with Premix WST-1 Cell Proliferation Assay System available from TaKaRa Bio Inc. The phospholipidosis induction ability was judged to be positive when, at a dose that provided a cell viability of 50% or more, the reaction (the concentration of NBD-PE incorporated after administration of a test substance) was 25% or more of the maximum reaction of a positive control amiodarone (the concentration of NBD-PE incorporated into the cells after administration of amiodarone was regarded as 100%).

[2] = molecular target: T1, hERG K+ channel (Homo sapiens, UniProt Q12809); assay: Evaluation of hERG K+ channel inhibitory activity using cells expressing human ERG (automated patch-clamp, CHO-K1); assay type: cell-based; settings: CHO-K1 cells with human ERG gene, tested at 1, 3 and 10 μmol/L, 5-minute incubation
T1 construct: expressed in transfected cells; host or cells: CHO-K1
T1 sequence (Q12809 whole entry): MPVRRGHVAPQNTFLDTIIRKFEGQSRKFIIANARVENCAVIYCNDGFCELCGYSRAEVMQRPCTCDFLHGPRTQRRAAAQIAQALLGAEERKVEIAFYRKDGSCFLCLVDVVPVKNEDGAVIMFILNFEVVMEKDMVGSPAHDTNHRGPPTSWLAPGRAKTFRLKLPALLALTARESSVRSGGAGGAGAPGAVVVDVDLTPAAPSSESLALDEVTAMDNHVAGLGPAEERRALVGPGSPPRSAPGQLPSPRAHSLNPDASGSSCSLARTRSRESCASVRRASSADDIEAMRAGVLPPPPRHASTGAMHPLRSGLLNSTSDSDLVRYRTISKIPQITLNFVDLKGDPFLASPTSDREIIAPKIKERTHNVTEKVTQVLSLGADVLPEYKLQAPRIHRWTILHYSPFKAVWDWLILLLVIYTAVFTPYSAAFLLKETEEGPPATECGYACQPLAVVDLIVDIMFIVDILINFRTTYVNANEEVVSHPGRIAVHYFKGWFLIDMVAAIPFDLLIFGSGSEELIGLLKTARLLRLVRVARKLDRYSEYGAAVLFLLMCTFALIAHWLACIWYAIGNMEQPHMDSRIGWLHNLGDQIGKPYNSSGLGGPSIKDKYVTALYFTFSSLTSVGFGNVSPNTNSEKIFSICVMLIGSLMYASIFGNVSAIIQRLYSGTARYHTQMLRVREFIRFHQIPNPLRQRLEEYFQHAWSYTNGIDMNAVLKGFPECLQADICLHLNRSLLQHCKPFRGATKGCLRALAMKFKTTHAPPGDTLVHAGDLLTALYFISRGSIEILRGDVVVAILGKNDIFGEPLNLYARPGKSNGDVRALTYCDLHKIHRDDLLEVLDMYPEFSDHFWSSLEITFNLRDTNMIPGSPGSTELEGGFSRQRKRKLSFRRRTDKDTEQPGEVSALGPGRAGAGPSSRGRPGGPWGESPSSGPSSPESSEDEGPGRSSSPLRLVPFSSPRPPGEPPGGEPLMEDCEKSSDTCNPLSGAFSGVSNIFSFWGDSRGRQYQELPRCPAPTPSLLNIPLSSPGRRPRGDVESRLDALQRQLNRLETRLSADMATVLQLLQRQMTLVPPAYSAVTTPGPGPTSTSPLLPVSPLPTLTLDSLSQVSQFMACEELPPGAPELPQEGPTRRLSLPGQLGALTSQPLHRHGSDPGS
Method: Evaluation of hERG K^+ Channel Inhibitory Activity Using Cells Expressing Human ERG
CHO-K1 cells having the human ERG gene (ether-a-go-go related gene) introduced therein were subcultured in an F-12 medium [F-12 Nutrient Mixture (HAM)] containing 10% inactivated foetal bovine serum, 100 IU/mL penicillin-100 μg/mL streptomycin and 200 μg/mL geneticin.
Patch-clamp was performed in a full-automated manner using CHO-K1 cells having the human ERG gene introduced therein and having a perforated patch formed therein with amphotericin B. For the experiment, a 384-well PatchPlate™ was used and the cell suspension and compounds were added thereto. The IKr current was measured with command voltages of holding potential of −80 mV, depolarization potential of +40 mV (2 seconds) and repolarization potential of −50 mV (2 seconds). The stimulation frequency was twice (single pulse stimulations) before and after the treatment with a drug (the concentrations of a compound for evaluation were 1, 3 and 10 μmol/L, a 5-minute incubation), and the Ikr maximum current was measured. The inhibition (%) on the CHO-K1 cells having the human ERG gene introduced therein was determined by correcting the variation in the maximum tail current before and after addition of the test substance by the variation thereof in the group treated with a medium (inhibition (%)=(1-variation in current before and after addition of a test substance/variation in current before and after addition of a medium)×100). The 50% inhibitory concentration (IC50 value) was calculated from a line connecting two points on both sides of the inhibition of 50%.

[3] = molecular target: T2, human SSTR2 (Homo sapiens, UniProt P30874); assay: Evaluation of SSTR2 agonistic activity using cells expressing human SSTR2 (suppression of forskolin-stimulated cAMP production, SSTR2-CHO-K1); assay type: cell-based; settings: suppression of cAMP production by forskolin stimulation, 1000 nmol/L octreotide = 100%
T2 construct: Myc; expressed in transfected cells
T2 sequence (P30874 whole entry): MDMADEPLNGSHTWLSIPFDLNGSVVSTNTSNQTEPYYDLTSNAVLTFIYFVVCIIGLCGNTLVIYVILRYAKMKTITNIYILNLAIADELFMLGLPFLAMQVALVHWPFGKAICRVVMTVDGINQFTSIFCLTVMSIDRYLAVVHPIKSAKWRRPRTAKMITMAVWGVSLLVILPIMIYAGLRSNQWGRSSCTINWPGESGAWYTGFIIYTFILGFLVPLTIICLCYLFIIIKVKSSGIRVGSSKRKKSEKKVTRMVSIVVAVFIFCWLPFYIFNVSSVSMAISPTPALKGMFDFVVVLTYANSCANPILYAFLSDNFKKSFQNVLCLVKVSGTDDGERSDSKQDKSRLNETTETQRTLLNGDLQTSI

[4] = tested on: GH secretion; assay: Evaluation of suppression of growth hormone (GH) secretion using rats (GHRH-induced); assay type: in vivo; settings: Rattus norvegicus, 5 min, oral, dosage of 1 mg/kg, GHRH given 8 hours after dosing, blood GH 5 minutes after GHRH
Method: A medium (distilled water (Otsuka distilled water, Otsuka Pharmaceutical Factory, Inc.)) or a test compound dissolved in the medium was orally administered to rats (7-week old male Crl:CD(SD) IGS rats (Charles River Laboratories Japan, Inc.)) and after 7 hours and 57 minutes, the animals were administered with 50 mg/kg of pentobarbital sodium (Somnopentyl, Kyoritsu Seiyaku Corporation) via the tail vein for anaesthesia. Three minutes after administration of pentobarbital sodium, the rats were administered with 0.01 mg/kg of growth hormone-releasing hormone (GHRH, Bachem) via the tail vein to induce GH secretion. In order to measure the blood GH concentration, 0.2 mL of blood was collected through the jugular vein at 5 minutes after administration of GHRH. The collected blood was centrifuged at 4° C., 13,000×g for 5 minutes to obtain plasma. The blood GH concentration was measured by using Rat/Mouse Growth Hormone ELISA (Millipore) following the instruction of the kit. The percentage (%) of suppression of GH secretion was determined by using the obtained blood GH concentration and the equation {[suppression (%) of GH secretion]=([blood GH concentration of the group administered with the medium]−[blood GH concentration of the group administered with a test compound])/[blood GH concentration of the group administered with the medium]×100}. In the equation, the group administered with the medium represents the group of animals administered with the medium and the group administered with a test compound represents the group of animals administered with a test compound dissolved in the medium.

Compound | phospholipidosis induction ability (judgement) [1] | IC50 [2] | EC50 [3] | concentration at which judged to be positive in phospholipidosis induction ability [1] | inhibition in vivo at 1 mg/kg [4]
Cn1cc(-c2ncc(-c3cc(F)cc(F)c3)c(N3CC[C@@H](N)[C@@H](O)C3)c2-c2nc3cc(F)c(F)cc3[nH]2)cn1 [Example 1(2), (3S,4R)-4-amino-1-[3-(5,6-difluoro-1H-benzimidazol-2-yl)-5-(3,5-difluorophenyl)-2-(1-methyl-1H-pyrazol-4-yl)-4-pyridinyl]-3-piperidinol] | negative | ≥ 10000 nM | 0.032 nM |  | 
COC(=O)c1cc(F)cc2nc(-c3c(C)ncc(-c4cc(F)cc(Cl)c4)c3N3CC[C@@H](N)[C@@H](O)C3)[nH]c12 [Example 2(3), Methyl 2-{4-[(3S,4R)-4-amino-3-hydroxy-1-piperidinyl]-5-(3-chloro-5-fluorophenyl)-2-methyl-3-pyridinyl}-5-fluoro-1H-benzimidazole-7-carboxylate] |  | 5200 nM | 0.019 nM | 12.5 µM | 76%
COC(=O)c1cc(F)cc2nc(-c3c(C)ncc(-c4cc(F)ccc4F)c3N3CC[C@@H](N)[C@@H](O)C3)[nH]c12 [Example 2(12), Methyl 2-{4-[(3S,4R)-4-amino-3-hydroxy-1-piperidinyl]-5-(2,5-difluorophenyl)-2-methyl-3-pyridinyl}-5-fluoro-1H-benzimidazole-7-carboxylate] |  | 9400 nM | 0.016 nM |  | 
Cc1ncc(-c2cc(F)cc(F)c2)c(N2CC[C@@H](N)[C@@H](O)C2)c1-c1nc2cc(F)c(F)c(F)c2[nH]1 [Example 2(13), (3S,4R)-4-amino-1-[5-(3,5-difluorophenyl)-2-methyl-3-(5,6,7-trifluoro-1H-benzimidazol-2-yl)-4-pyridinyl]-3-piperidinol] |  | ≥ 10000 nM | 0.017 nM |  | 
CCN[C@@H]1CCN(c2c(-c3cc(F)cc(F)c3)cnc(C)c2-c2nc3cc(F)c(OC)cc3[nH]2)C[C@@H]1O [Example 3(4), (3S,4R)-1-[5-(3,5-difluorophenyl)-3-(5-fluoro-6-methoxy-1H-benzimidazol-2-yl)-2-methyl-4-pyridinyl]-4-(ethylamino)-3-piperidinol] |  | ≥ 10000 nM | 0.056 nM |  | 71%
Cc1ncc(-c2cc(F)cc(Cl)c2)c(N2CC[C@@H](NC3COC3)[C@@H](O)C2)c1-c1nc2cc(F)c(F)cc2[nH]1 [Example 3(5), (3S,4R)-1-[5-(3-chloro-5-fluorophenyl)-3-(5,6-difluoro-1H-benzimidazol-2-yl)-2-methyl-4-pyridinyl]-4-(3-oxetanylamino)-3-piperidinol] | negative | 9600 nM | 0.023 nM |  | 83%
Cc1ncc(-c2cc(F)cc(F)c2)c(N2CC[C@@H](NCCC(F)(F)F)[C@@H](O)C2)c1-c1nc2cc(F)c(F)cc2[nH]1 [Example 3(12), (3S,4R)-1-[3-(5,6-difluoro-1H-benzimidazol-2-yl)-5-(3,5-difluorophenyl)-2-methyl-4-pyridinyl]-4-[(3,3,3-trifluoropropyl)amino]-3-piperidinol] | negative | 5100 nM | 1 nM |  | 85%
CCN[C@@H]1CCN(c2c(-c3cc(F)cc(F)c3)cnc(C)c2-c2nc3cc(F)c(F)c(F)c3[nH]2)C[C@@H]1O [Example 3(15), (3S,4R)-1-[5-(3,5-difluorophenyl)-2-methyl-3-(5,6,7-trifluoro-1H-benzimidazol-2-yl)-4-pyridinyl]-4-(ethylamino)-3-piperidinol] |  | 5800 nM | 0.47 nM |  | 66%
COc1ccc2nc(-c3c(C)ncc(-c4cc(F)cc(Cl)c4)c3N3CC[C@@H](NC4COC4)[C@@H](O)C3)[nH]c2c1 [Example 3, (3S,4R)-1-[5-(3-chloro-5-fluorophenyl)-3-(6-methoxy-1H-benzimidazol-2-yl)-2-methyl-4-pyridinyl]-4-(3-oxetanylamino)-3-piperidinol] | negative | ≥ 10000 nM | 0.027 nM |  | 
N[C@@H]1CCN(c2c(-c3cc(F)cc(F)c3)cncc2-c2nc3ccccc3[nH]2)C[C@@H]1O [Example 4(4), (3S,4R)-4-amino-1-[3-(1H-benzimidazol-2-yl)-5-(3,5-difluorophenyl)-4-pyridinyl]-3-piperidinol] |  | 6700 nM | 0.0093 nM | 25 µM | 
COc1ccc2nc(-c3cncc(-c4cc(F)ccc4F)c3N3CC[C@@H](N)[C@@H](O)C3)[nH]c2c1 [Example 4(15), (3S,4R)-4-amino-1-[3-(2,5-difluorophenyl)-5-(6-methoxy-1H-benzimidazol-2-yl)-4-pyridinyl]-3-piperidinol] |  | 9100 nM | 0.012 nM | 25 µM | 
N[C@@H]1CCN(c2c(-c3cc(F)cc(F)c3)cncc2-c2nc3cc(F)c(F)cc3[nH]2)C[C@@H]1O [Example 4, (3S,4R)-4-amino-1-[3-(5,6-difluoro-1H-benzimidazol-2-yl)-5-(3,5-difluorophenyl)-4-pyridinyl]-3-piperidinol] |  | 6900 nM | 0.015 nM | ≥ 12.5 µM | 
O[C@H]1CN(c2c(-c3cc(F)cc(Cl)c3)cncc2-c2nc3cc(F)c(F)cc3[nH]2)CC[C@H]1NCCC(F)(F)F [Example 5(3), (3S,4R)-1-[3-(3-chloro-5-fluorophenyl)-5-(5,6-difluoro-1H-benzimidazol-2-yl)-4-pyridinyl]-4-[(3,3,3-trifluoropropyl)amino]-3-piperidinol] | negative | ≥ 10000 nM | 0.28 nM |  | 
COc1cc(F)cc(-c2cncc(-c3nc4cc(F)c(F)cc4[nH]3)c2N2CC[C@@H](NCCC(F)(F)F)[C@@H](O)C2)c1 [Example 5(5), (3S,4R)-1-[3-(5,6-difluoro-1H-benzimidazol-2-yl)-5-(3-fluoro-5-methoxyphenyl)-4-pyridinyl]-4-[(3,3,3-trifluoropropyl)amino]-3-piperidinol] | negative | ≥ 10000 nM | 0.42 nM |  | 
COC(=O)c1cc(F)cc2nc(-c3c(N4CCOCC4)ncc(-c4cc(F)cc(F)c4)c3N3CC[C@@H](N)[C@@H](O)C3)[nH]c12 [Example 6, Methyl 2-{4-[(3S,4R)-4-amino-3-hydroxy-1-piperidinyl]-5-(3,5-difluorophenyl)-2-(4-morpholinyl)-3-pyridinyl}-5-fluoro-1H-benzimidazole-7-carboxylate] |  | 4400 nM | 0.081 nM | 50 µM | 
